# Measured values reported in patent EP0369079A1, “Pharmaceutical compositions with anti-cancer activity and method for the treatment of cancer” (priority 1988, dated 1990).
# Structures can show the parent of a compound that is named as a salt. Where two headings read alike, the source gives them in different places.
# Assays:
# NHIK 3025 cells [1] = experiment: Rate of protein synthesis ([3H]valine incorporation related to [14C] protein label); format: cell-based, Human; details: Table 6, control 4.5
# Protocol: Human cells of the established line NHIK 3025, originating from a cervical carcinoma in situ (Nordbye, K., and Oftebro, R. Exp. Cell Res., 58:458, l969), Oftebro, R., and Nordbye, K., Exp. Cell Res., 58:459-460, 1969) were cultivated in Medium E2a (Puck, T.T. et al., J. Exp. Med., 106: 145-165, 1957) supplemented with 20% human and 10% horse serum (Grand Island Biological Co.). The cells are grown as monolayers in tissue culture flasks. […] The cells were kept in continuous exponential growth by frequent reculturing, i.e. every second and third day.
# The rate of protein synthesis was calculated as described in Rønning, ø. W. et al., J. Cell Physiol., 107: 47-57, 1981. Briefly, cellular protein was labelled to saturation during a 2-day preincubation with (¹⁴C)valine of constant specific radioactivity (0.5 Ci/mol) prior to the experiment. This was achieved by using a high concentration of valine so that the dilution of (¹⁴C) valine by intracellular valine and by proteolytically generated valine will be negligible (Rønning, ø. W., et al. Exp. Cell Res. 123:63-72, 1979), thus keeping the specific radioactivity at a constant level. The rate of protein synthesis was calculated from the incorporation of (³H) valine of constant specific activity. The incorporation measurements were related to the total of (¹⁴C) radioacitivty in protein at the beginning of the respective measurement periods and expressed as the percentage per hour (Rønning, ø. W. et al, J. Cell, Physiol. 107:47-57, 1981).
# From earlier studies, it is known that determination of protein synthesis inhibition is a useful measure of anti-cancer activity. In the present study we have tested the protein synthesis inhibition as induced by both BASS and Asc alone, and by the two active agents in simultaneous combination. The experiment also included samples treated similarly, but where BASS-d₁ was used instead of BASS.
# NHIK 3025 cells [2] = experiment: Cell survival (colony formation) after drug treatment; format: cell-based, Human; details: for Surviving fraction: 1440 min
# Protocol: The cells are grown as monolayers in tissue culture flasks. […] The cells were kept in continuous exponential growth by frequent reculturing, i.e. every second and third day.
# For measurment of cell survival, appropriate numbers of cells were seeded in plastic Petri dishes (⌀ = 5 cm). The number of cells seeded into each dish was adjusted such that the number of surviving cells would be approximately 150 per dish. While exponentially growing (asynchronous) cells were trypsinized before seeding, synchronized cells were seeded immediately after selection. […] After the desired time of treatment, the drug-containing medium was removed, and fresh medium was added. The dishes were rinsed once with the same medium as was to be added on addition or removal of drug. After 10 to 12 days at 37°C in a CO₂ incubator, the cells were fixed in ethanol and stained with methylene blue before the colonies were counted.
# The cytotoxic effect of BASS and of ascorbic acid (Asc) used either alone or in simultaneous combination was measured on asynchronous, exponentially growing NHIK 3025 cells.
# [3] = L-ascorbic acid in combination with other aromatic aldehydes or derivatives (synergy check); format: cell-based; details: used in combination with L-ascorbic acid
# [4] = 1.0 mM BASS or BASS-d1 alone (0 mM Asc), per cent of the total cellular protein per hour
# [5] = 3.2 mM BASS or BASS-d1 alone (0 mM Asc)
# [6] = Homo sapiens, NHIK3025, 24 h, Table 4, 24 hours, 1.0 mM BASS or BASS-d1 alone (0 mM Asc), read-out: Surviving fraction
structure (smiles),measurement,setting,value
"O=C1O[C@H]([C@@H](O)CO)C(O)=C1O [Asc, L-ascorbic acid, reference compound]",rate of protein synthesis,NHIK 3025 cells [1]; 1.0 mM Asc alone,2.96±0.04 %/h
same,rate of protein synthesis,NHIK 3025 cells [1]; 3.2 mM Asc alone,1.5±0.2 %/h
same,viability at 1600 µM,"NHIK 3025 cells [2]; Homo sapiens, NHIK3025, 4 h, Table 3, 4 hours, 1.6 mM Asc alone, read-out: Surviving fraction",91 ± 1%
same,viability at 3200 µM,"NHIK 3025 cells [2]; Homo sapiens, NHIK3025, 4 h, Table 3, 4 hours, 3.2 mM Asc alone, read-out: Surviving fraction",27 ± 3%
same,viability at 800 µM,"NHIK 3025 cells [2]; Homo sapiens, NHIK3025, 24 h, Table 1, 24 hours, 0.8 mM Asc alone (0 mM BASS), read-out: Surviving fraction",91 ± 9%
same,viability at 1200 µM,"NHIK 3025 cells [2]; Homo sapiens, NHIK3025, 24 h, Table 1, 24 hours, 1.2 mM Asc alone (0 mM BASS), read-out: Surviving fraction",80%
same,viability at 1600 µM,"NHIK 3025 cells [2]; Homo sapiens, NHIK3025, 24 h, Table 1, 24 hours, 1.6 mM Asc alone (0 mM BASS), read-out: Surviving fraction",61 ± 4%
same,viability at 2400 µM,"NHIK 3025 cells [2]; Homo sapiens, NHIK3025, 24 h, Table 1, 24 hours, 2.4 mM Asc alone (0 mM BASS), read-out: Surviving fraction",40 ± 3%
same,viability at 3200 µM,"NHIK 3025 cells [2]; Homo sapiens, NHIK3025, 24 h, Table 1, 24 hours, 3.2 mM Asc alone (0 mM BASS), read-out: Surviving fraction",11 ± 0.8%
same,viability at 800 µM,"NHIK 3025 cells [2]; Homo sapiens, NHIK3025, Table 2 (further experiment, similar to Table 1), 0.8 mM Asc alone, read-out: Surviving fraction",95 ± 5%
same,viability at 1200 µM,"NHIK 3025 cells [2]; Homo sapiens, NHIK3025, Table 2 (further experiment, similar to Table 1), 1.2 mM Asc alone, read-out: Surviving fraction",69 ± 2%
same,viability at 1600 µM,"NHIK 3025 cells [2]; Homo sapiens, NHIK3025, Table 2 (further experiment, similar to Table 1), 1.6 mM Asc alone, read-out: Surviving fraction",54 ± 2%
same,viability at 2400 µM,"NHIK 3025 cells [2]; Homo sapiens, NHIK3025, Table 2 (further experiment, similar to Table 1), 2.4 mM Asc alone, read-out: Surviving fraction",29 ± 1%
same,viability at 3200 µM,"NHIK 3025 cells [2]; Homo sapiens, NHIK3025, Table 2 (further experiment, similar to Table 1), 3.2 mM Asc alone, read-out: Surviving fraction",8.7 ± 1%
same,Surviving fraction,"NHIK 3025 cells [2]; Table 1, 24 hours, 1.2 mM Asc alone (0 mM BASS), 1200 µM",0.80±0.09
"[2H]C1(c2ccccc2)OC[C@@H]([C@H]2OC(=O)C(O)=C2O)O1 (stereo partly drawn) [BASS-d₁, sodium salt of 5,6-O-benzylidene-L-ascorbic acid deuterated at the 1-position of the aldehyde group of the benzylidene moiety]",rate of protein synthesis,NHIK 3025 cells [1]; [4],3.03±0.16 %/h
same,rate of protein synthesis,NHIK 3025 cells [1]; [5],2.00±0.03 %/h
same,viability at 1000 µM,NHIK 3025 cells [2]; [6],55 ± 5%
"O=C1O[C@H]([C@@H]2COC(c3ccccc3)O2)C(O)=C1O (stereo partly drawn) [BASS, sodium salt of 5,6-O-benzylidene-L-ascorbic acid]",rate of protein synthesis,NHIK 3025 cells [1]; [4],3.06±0.02 %/h
same,rate of protein synthesis,NHIK 3025 cells [1]; [5],1.71±0.05 %/h
same,viability at 1600 µM,"NHIK 3025 cells [2]; Homo sapiens, NHIK3025, 4 h, Table 3, 4 hours, 1.6 mM BASS alone, read-out: Surviving fraction",80 ± 5%
same,viability at 3200 µM,"NHIK 3025 cells [2]; Homo sapiens, NHIK3025, 4 h, Table 3, 4 hours, 3.2 mM BASS alone, read-out: Surviving fraction",36 ± 3%
same,viability at 1000 µM,"NHIK 3025 cells [2]; Homo sapiens, NHIK3025, 24 h, Table 1, 24 hours, 1.0 mM BASS alone (0 mM Asc), read-out: Surviving fraction",76%
same,viability at 1600 µM,"NHIK 3025 cells [2]; Homo sapiens, NHIK3025, 24 h, Table 1, 24 hours, 1.6 mM BASS alone (0 mM Asc), read-out: Surviving fraction",52 ± 2%
same,viability at 3200 µM,"NHIK 3025 cells [2]; Homo sapiens, NHIK3025, 24 h, Table 1, 24 hours, 3.2 mM BASS alone (0 mM Asc), read-out: Surviving fraction",1.1 ± 0.1%
same,viability at 1000 µM,NHIK 3025 cells [2]; [6],62 ± 5%
same,viability at 1600 µM,"NHIK 3025 cells [2]; Homo sapiens, NHIK3025, 24 h, read-out: Surviving fraction",24 ± 3%
same,viability at 500 µM,"NHIK 3025 cells [2]; Homo sapiens, NHIK3025, Table 2 (further experiment, similar to Table 1), 0.5 mM BASS alone, read-out: Surviving fraction",91 ± 7%
same,viability at 1000 µM,"NHIK 3025 cells [2]; Homo sapiens, NHIK3025, Table 2 (further experiment, similar to Table 1), 1.0 mM BASS alone, read-out: Surviving fraction",63 ± 8%
same,viability at 1600 µM,"NHIK 3025 cells [2]; Homo sapiens, NHIK3025, Table 2 (further experiment, similar to Table 1), 1.6 mM BASS alone, read-out: Surviving fraction",44 ± 3%
same,viability at 3200 µM,"NHIK 3025 cells [2]; Homo sapiens, NHIK3025, Table 2 (further experiment, similar to Table 1), 3.2 mM BASS alone, read-out: Surviving fraction",3.9 ± 0.4%
same,Surviving fraction,"NHIK 3025 cells [2]; Table 1, 24 hours, 1.0 mM BASS alone (0 mM Asc), 1000 µM",0.76±0.02
"OC1O[C@@H]2COC(c3ccccc3)O[C@H]2[C@H](O)[C@H]1O (stereo partly drawn) [4,6-O-benzylidene glucose]",synergistic effects,[3],without observing any synergistic effects
